Results: PMC11129182, “Development of Inhibitors, Probes, and PROTAC Provides a Complete Toolbox to Study PARK7 in the Living Cell” (Journal of Medicinal Chemistry, 2024)

Target: T1, PARK7 (Homo sapiens, UniProt Q99497)
T1 sequence (Q99497 1-189): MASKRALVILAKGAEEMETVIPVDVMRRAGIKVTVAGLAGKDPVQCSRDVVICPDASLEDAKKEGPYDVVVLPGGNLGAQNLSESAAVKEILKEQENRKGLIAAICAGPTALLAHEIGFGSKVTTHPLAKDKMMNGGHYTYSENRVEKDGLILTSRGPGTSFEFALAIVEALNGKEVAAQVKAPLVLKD
Experiment: High-throughput screen of the crude compound library, PARK7 fluorescence polarization (FP) assay with FP reagent JYQ-107
Type: biochemical
Details: 1.25 µM, crude compound library; read-out: HTS FP assay %Inhibition (1.25 µM)
Excerpt: Therefore, taking JYQ-88 as a starting point, we conducted an optimization to further improve the molecule in terms of inhibitory potency, specificity, and cellular uptake. […] First, a small tailored library was designed and synthesized to investigate whether the introduction of larger, hydrophilic substituents on JYQ-88 would enhance the interaction with the PARK7 pocket. […] The second approach involved the generation of a compound library containing diverse substituents at the azidomethyl position. […] We next performed a high-throughput screen of this crude compound library using our in-house developed PARK7 fluorescence polarization (FP) assay.[15]

Row | inhibition at 1.25 µM | SMILES
1 | 82.4% | Cn1cc(S(=O)(=O)NCc2ccco2)cc1C(=O)N1CCc2nc(NC(=O)[C@@H]3CCN(C#N)C3)sc2C1 [compound 73]
2 | 82.1% | N#CN1CC[C@@H](C(=O)Nc2nc3c(s2)CN(C(=O)Cc2cccc(OCc4ccccn4)c2)CC3)C1 [compound 74]
3 | 72% | Cc1nc(-c2ncccn2)sc1C(=O)N1CCc2nc(NC(=O)[C@@H]3CCN(C#N)C3)sc2C1 [compound 75]
4 | 84.1% | N#CN1CC[C@@H](C(=O)Nc2nc3c(s2)CN(C(=O)c2cn(CC(=O)N4CCCC4)nn2)CC3)C1 [compound 77]
5 | 74.3% | COc1ccccc1-c1nnc(CC(=O)N2CCc3nc(NC(=O)[C@@H]4CCN(C#N)C4)sc3C2)o1 [compound 78]
6 | 87.6% | Cc1ccc(N(CCC(=O)N2CCc3nc(NC(=O)[C@@H]4CCN(C#N)C4)sc3C2)S(=O)(=O)c2ccccc2)cc1 [compound 79]
7 | 68.5% | Cn1nccc1[C@@H]1OCCC[C@H]1C(=O)N1CCc2nc(NC(=O)[C@@H]3CCN(C#N)C3)sc2C1 [compound 80]
8 | 80.2% | N#CN1CC[C@@H](C(=O)Nc2nc3c(s2)CN(C(=O)c2cc(-c4ccc(Br)cc4)ns2)CC3)C1 [compound 81]
9 | 71.4% | Cn1ncc(C2CC2)c1C(=O)N1CCc2nc(NC(=O)[C@@H]3CCN(C#N)C3)sc2C1 [compound 82]
10 | 63% | N#CN1CC[C@@H](C(=O)Nc2nc3c(s2)CN(C(=O)c2noc(-c4cccc(Cl)c4)n2)CC3)C1 [compound 85]
11 | 70.5% | Cc1c(S(=O)(=O)N2CCC(C(=O)N3CCc4nc(NC(=O)[C@@H]5CCN(C#N)C5)sc4C3)CC2)cnn1C [compound 86]
12 | 86.5% | Cc1nnnn1-c1cc(C(=O)N2CCc3nc(NC(=O)[C@@H]4CCN(C#N)C4)sc3C2)cc(C(F)(F)F)c1 [compound 87]
13 | 77.3% | CC1CCN(c2ncc(C(=O)N3CCc4nc(NC(=O)[C@@H]5CCN(C#N)C5)sc4C3)s2)CC1 [compound 88]
14 | 68.2% | N#CN1CC[C@@H](C(=O)Nc2nc3c(s2)CN(C(=O)C2CCN(c4ccc(=O)[nH]n4)CC2)CC3)C1 [compound 89]
15 | 81.3% | N#CN1CC[C@@H](C(=O)Nc2nc3c(s2)CN(C(=O)c2cnn(CC4CCCCO4)c2)CC3)C1 (stereo partly drawn) [compound 90]
16 | 82.6% | Cc1cc(C(=O)N2CCc3nc(NC(=O)[C@@H]4CCN(C#N)C4)sc3C2)c(C2CC2)s1 [compound 91]
17 | 64.4% | N#CN1CC[C@@H](C(=O)Nc2nc3c(s2)CN(C(=O)c2ccc(-n4ccnc4)nn2)CC3)C1 [compound 92]
18 | 60.9% | N#CN1CC[C@@H](C(=O)Nc2nc3c(s2)CN(C(=O)c2c(-c4ccccc4)noc2C(F)F)CC3)C1 [compound 93]
19 | 65.7% | N#CN1CC[C@@H](C(=O)Nc2nc3c(s2)CN(C(=O)C2(c4ccccc4Cl)CCOCC2)CC3)C1 [compound 94]
20 | 81.3% | Cc1noc(C)c1Cc1ccc(C(=O)N2CCc3nc(NC(=O)[C@@H]4CCN(C#N)C4)sc3C2)o1 [compound 95]
21 | 77.9% | Cc1cc(NS(=O)(=O)c2cccc(C(=O)N3CCc4nc(NC(=O)[C@@H]5CCN(C#N)C5)sc4C3)c2)no1 [compound 96]
22 | 72.8% | CN1CCN(C(=O)C2CC=CCC2C(=O)N2CCc3nc(NC(=O)[C@@H]4CCN(C#N)C4)sc3C2)CC1 (stereo partly drawn) [compound 97]
23 | 78.4% | N#CN1CC[C@@H](C(=O)Nc2nc3c(s2)CN(C(=O)c2ccc(S(=O)(=O)N4CCOCC4)cc2)CC3)C1 [compound 98]
24 | 86.7% | N#CN1CC[C@@H](C(=O)Nc2nc3c(s2)CN(C(=O)Cc2csc(-n4cccc4)n2)CC3)C1 [compound 99]

Row | inhibition at 1.25 µM | SMILES
25 | 75.4% | Cc1cc(-c2nc(C)sc2CC(=O)N2CCc3nc(NC(=O)[C@@H]4CCN(C#N)C4)sc3C2)c(C)s1 [compound 100]
26 | 79.1% | N#CN1CC[C@@H](C(=O)Nc2nc3c(s2)CN(C(=O)C2CC(=O)N(CCOc4ccccc4Cl)C2)CC3)C1 (stereo partly drawn) [compound 101]
27 | 69.3% | N#CN1CC[C@@H](C(=O)Nc2nc3c(s2)CN(C(=O)c2ccc(-n4ncc(Cl)c(Cl)c4=O)cc2)CC3)C1 [compound 102]
28 | 86.4% | N#CN1CC[C@@H](C(=O)Nc2nc3c(s2)CN(C(=O)c2ccc(CN4CCOCC4)cc2)CC3)C1 [compound 103]
29 | 62.8% | N#CN1CC[C@@H](C(=O)Nc2nc3c(s2)CN(C(=O)c2cnc(-c4ccco4)s2)CC3)C1 [compound 104]
30 | 85.3% | N#CN1CC[C@@H](C(=O)Nc2nc3c(s2)CN(C(=O)Cc2csc(-c4cccs4)n2)CC3)C1 [compound 105]
31 | 85.1% | N#CN1CC[C@@H](C(=O)Nc2nc3c(s2)CN(C(=O)c2csc(-c4ccccn4)n2)CC3)C1 [compound 106]
32 | 82.7% | Cc1noc(C)c1COc1ccc(CC(=O)N2CCc3nc(NC(=O)[C@@H]4CCN(C#N)C4)sc3C2)cc1 [compound 107]
33 | 68.1% | N#CN1CC[C@@H](C(=O)Nc2nc3c(s2)CN(C(=O)CC2=NN(c4ncc(C(F)(F)F)cc4Cl)C(=O)C2)CC3)C1 [compound 109]
34 | 82.9% | N#CN1CC[C@@H](C(=O)Nc2nc3c(s2)CN(C(=O)c2occc2COc2ccccc2)CC3)C1 [compound 111]
35 | 68.7% | N#CN1CC[C@@H](C(=O)Nc2nc3c(s2)CN(C(=O)C2CCN(C(=O)CCOc4ccccc4)CC2)CC3)C1 [compound 113]
36 | 68.2% | Cn1cc(S(=O)(=O)N2CCCC(C(=O)N3CCc4nc(NC(=O)[C@@H]5CCN(C#N)C5)sc4C3)C2)cn1 (stereo partly drawn) [compound 114]
37 | 81% | N#CN1CC[C@@H](C(=O)Nc2nc3c(s2)CN(C(=O)c2cc(S(=O)(=O)N4CCOCC4)c[nH]2)CC3)C1 [compound 115]
38 | 81.9% | COc1ccc(OCc2cc(C)on2)c(C(=O)N2CCc3nc(NC(=O)[C@@H]4CCN(C#N)C4)sc3C2)c1 [compound 116]
39 | 71.4% | N#CN1CC[C@@H](C(=O)Nc2nc3c(s2)CN(C(=O)C2CC(=O)N(CCN4CCOCC4)C2)CC3)C1 (stereo partly drawn) [compound 117]
40 | 83.7% | N#CN1CC[C@@H](C(=O)Nc2nc3c(s2)CN(C(=O)Cc2cccc(OCc4cccnc4)c2)CC3)C1 [compound 118]
41 | 71.9% | CN(Cc1cccnc1)S(=O)(=O)c1cc(C(=O)N2CCc3nc(NC(=O)[C@@H]4CCN(C#N)C4)sc3C2)n(C)c1 [compound 119]
42 | 46.4% | Cc1n[nH]c(C)c1S(=O)(=O)N1CCC(C(=O)N2CCc3nc(NC(=O)[C@@H]4CCN(C#N)C4)sc3C2)CC1 [compound 120]
43 | 70.9% | N#CN1CC[C@@H](C(=O)Nc2nc3c(s2)CN(C(=O)c2occc2CN2CCOCC2)CC3)C1 [compound 122]
44 | 67.6% | N#CN1CC[C@@H](C(=O)Nc2nc3c(s2)CN(C(=O)c2ccc(COc4ccccc4Br)cc2)CC3)C1 [compound 123]
45 | 85.6% | N#CN1CC[C@@H](C(=O)Nc2nc3c(s2)CN(C(=O)c2cccc(-c4cnco4)c2)CC3)C1 [compound 124]
46 | 85.7% | N#CN1CC[C@@H](C(=O)Nc2nc3c(s2)CN(C(=O)c2ccc(N4NC(=O)CCC4=O)cc2)CC3)C1 [compound 125]
47 | 70.6% | Cc1nc(C(=O)N2CCc3nc(NC(=O)[C@@H]4CCN(C#N)C4)sc3C2)co1 [compound 126]
48 | 83.8% | N#CN1CC[C@@H](C(=O)Nc2nc3c(s2)CN(C(=O)c2ccc(=O)n(Cc4ccccc4)n2)CC3)C1 [compound 127]
